# How the values were obtained:
# Format in all cases: in vivo
# rice plant = assay: Test Example 5: effect on crop by foliage application, plastic box (symbol b); settings: 320 g/ha, 3 weeks after application
# How it was run: (§1)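 A greenhouse held between 25° C. and 30° C. was used to grow plants sown spot-wise, beneath ~1.5 cm of soil, in boxes of sterilized diluvial soil.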
# corn = assay: Test Example 4: effect on crop by soil treatment (symbol c); settings: application herbicide amount 320 g/ha
# How it was run: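 Greenhouse culture at 25° C. to 30° C. followed sowing of seed in spots on sterilized diluvial soil with a soil cover close to 1.5 cm thick.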
# Monochoria vaginalis = assay: Test Example 2: herbicidal activity, application during weed generation in submerged conditions (symbol C); settings: Table 23; application herbicide amount 320 g/ha; grade 0-5 by criteria of Test Example 1
# How it was run: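 Each pot contained alluvial soil under 4 cm of water with seeds of all three weeds sown together. Following growth at 25° C. to 30° C. to the one- to two-leaf stage, the floodwater received diluted emulsion at a predetermined amount; visual assessment followed at 3 weeks.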
# Amaranthus retroflexus = assay: Test Example 4: herbicidal effect by soil treatment (symbol N); settings: application herbicide amount 320 g/ha
# How it was run: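 Seeds were sown in sterilized diluvial soil, covered with about 1.5 cm of soil, and the soil surface was sprayed with a water-diluted emulsion of the compound at a predetermined rate. Plants grew in a greenhouse at 25° C. to 30° C.; effects were scored visually 3 weeks after application.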
# wheat = assay: Test Example 5: effect on crop by foliage application, plastic box (symbol e); settings: 320 g/ha, 3 weeks after application
# How it was run: as §1
# soybean = assay: Test Example 4: effect on crop by soil treatment (symbol d); settings: application herbicide amount 320 g/ha
# How it was run: (§2)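 Steps: fill box with sterilized diluvial soil; sow seed spot-like; cover with ~1.5 cm soil; grow in greenhouse (25° C. to 30° C.).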
# rice = assay: Test Example 4: effect on crop by soil treatment (symbol b); settings: application herbicide amount 320 g/ha
# How it was run: as §2
SMILES,"b: directly sowed rice plant, effect on crop grade (rice plant)",c (corn) effect on crop grade (corn),"Herbicidal effect grade, C: Monochoria vaginalis (Monochoria vaginalis)",N (Amaranthus retroflexus) herbicidal effect grade (Amaranthus retroflexus),"e: wheat, effect on crop grade (wheat)",d (soybean) effect on crop grade (soybean),b (directly sowed rice plant) effect on crop grade (rice),"b: directly sowed rice plant, effect on crop (criteria of Test Example 1) (rice plant)","Effect on crop grade, c: corn (corn)","Herbicidal effect grade, N: Amaranthus retroflexus (Amaranthus retroflexus)","e: wheat, effect on crop (criteria of Test Example 1) (wheat)","Effect on crop grade, d: soybean (soybean)","Effect on crop grade, b: directly sowed rice plant (rice)","c: corn, effect on crop grade (corn)","N: Amaranthus retroflexus, herbicidal effect grade (Amaranthus retroflexus)","d: soybean, effect on crop grade (soybean)","b: directly sowed rice plant, effect on crop grade (rice)"
COC(=O)CON=C(C)CC1CC(O)=C(c2c(C)cc(C)cc2C)C1=O (centres unmarked) [1-023],4 (Herbicidal ratio of 70% or higher and lower than 90%),0 (Herbicidal ratio of 5% or lower (almost no effect)),0 (Herbicidal ratio of 5% or lower (almost no effect)),0 (Herbicidal ratio of 5% or lower (almost no effect)),0 (Herbicidal ratio of 5% or lower (almost no effect)),0 (Herbicidal ratio of 5% or lower (almost no effect)),5 (Herbicidal ratio of 90% or more (almost completely withered)),–,–,–,–,–,–,–,–,–,–
CON=C(C)CC1CC(O)=C(c2c(F)cc(C)cc2OC)C1=O (centres unmarked) [6-108],–,–,2 (Herbicidal ratio of 20% or higher and lower than 40%),–,–,–,–,5 (Herbicidal ratio of 90% or more (almost completely withered)),1 (Herbicidal ratio of 5% or higher and lower than 20%),4 (Herbicidal ratio of 70% or higher and lower than 90%),3 (Herbicidal ratio of 40% or higher and lower than 70%),0 (Herbicidal ratio of 5% or lower (almost no effect)),5 (Herbicidal ratio of 90% or more (almost completely withered)),–,–,–,–
CON=C(C)CC1CC(OS(=O)(=O)N(C)C)=C(c2c(C)cc(-c3ccc(F)cc3)cc2C)C1=O (mixture of isomers) [6-060],–,–,4 (Herbicidal ratio of 70% or higher and lower than 90%),–,–,–,–,5 (Herbicidal ratio of 90% or more (almost completely withered)),–,–,4 (Herbicidal ratio of 70% or higher and lower than 90%),–,–,0 (Herbicidal ratio of 5% or lower (almost no effect)),5 (Herbicidal ratio of 90% or more (almost completely withered)),0 (Herbicidal ratio of 5% or lower (almost no effect)),3 (Herbicidal ratio of 40% or higher and lower than 70%)
CON=C(C)C(=O)C1CC(O)=C(c2c(C)cc(C)cc2C)C1=O (centres unmarked) [8-002],4 (Herbicidal ratio of 70% or higher and lower than 90%),–,0 (Herbicidal ratio of 5% or lower (almost no effect)),–,0 (Herbicidal ratio of 5% or lower (almost no effect)),–,–,–,0 (Herbicidal ratio of 5% or lower (almost no effect)),0 (Herbicidal ratio of 5% or lower (almost no effect)),–,0 (Herbicidal ratio of 5% or lower (almost no effect)),0 (Herbicidal ratio of 5% or lower (almost no effect)),–,–,–,–
CCc1cc(Br)cc(C)c1C1=C(O)CC(C(C(C)=O)C(=O)OC)C1=O (centres unmarked) [7-001],–,–,0 (Herbicidal ratio of 5% or lower (almost no effect)),–,–,–,–,1 (Herbicidal ratio of 5% or higher and lower than 20%),0 (Herbicidal ratio of 5% or lower (almost no effect)),0 (Herbicidal ratio of 5% or lower (almost no effect)),0 (Herbicidal ratio of 5% or lower (almost no effect)),0 (Herbicidal ratio of 5% or lower (almost no effect)),4 (Herbicidal ratio of 70% or higher and lower than 90%),–,–,–,–
CON=C(C)CC1CC(O)=C(c2c(C)cc(-c3ccsc3)cc2C)C1=O (centres unmarked) [6-106],–,–,4 (Herbicidal ratio of 70% or higher and lower than 90%),–,–,–,–,3 (Herbicidal ratio of 40% or higher and lower than 70%),0 (Herbicidal ratio of 5% or lower (almost no effect)),0 (Herbicidal ratio of 5% or lower (almost no effect)),3 (Herbicidal ratio of 40% or higher and lower than 70%),0 (Herbicidal ratio of 5% or lower (almost no effect)),1 (Herbicidal ratio of 5% or higher and lower than 20%),–,–,–,–
CC(=O)CC1CC(O)=C(c2c(C)cc(C)cc2Br)C1=O (centres unmarked) [7-011],–,–,0 (Herbicidal ratio of 5% or lower (almost no effect)),–,–,–,–,5 (Herbicidal ratio of 90% or more (almost completely withered)),3 (Herbicidal ratio of 40% or higher and lower than 70%),0 (Herbicidal ratio of 5% or lower (almost no effect)),0 (Herbicidal ratio of 5% or lower (almost no effect)),0 (Herbicidal ratio of 5% or lower (almost no effect)),5 (Herbicidal ratio of 90% or more (almost completely withered)),–,–,–,–
CC(CC1CC(O)=C(c2c(C)cc(C)cc2C)C1=O)=NOCc1ccccn1 (centres unmarked) [1-022],5 (Herbicidal ratio of 90% or more (almost completely withered)),0 (Herbicidal ratio of 5% or lower (almost no effect)),3 (Herbicidal ratio of 40% or higher and lower than 70%),0 (Herbicidal ratio of 5% or lower (almost no effect)),5 (Herbicidal ratio of 90% or more (almost completely withered)),0 (Herbicidal ratio of 5% or lower (almost no effect)),5 (Herbicidal ratio of 90% or more (almost completely withered)),–,–,–,–,–,–,–,–,–,–
CC(=O)CC1CC(O)=C(c2c(C)cc(-c3ccc(C(F)(F)F)cc3)cc2C)C1=O (centres unmarked) [7-005],–,–,0 (Herbicidal ratio of 5% or lower (almost no effect)),–,–,–,–,4 (Herbicidal ratio of 70% or higher and lower than 90%),0 (Herbicidal ratio of 5% or lower (almost no effect)),0 (Herbicidal ratio of 5% or lower (almost no effect)),0 (Herbicidal ratio of 5% or lower (almost no effect)),0 (Herbicidal ratio of 5% or lower (almost no effect)),1 (Herbicidal ratio of 5% or higher and lower than 20%),–,–,–,–
CON=C(C)CC1CC(O)=C(c2c(C)cc(-c3ccccn3)cc2C)C1=O (mixture of isomers) [6-051],5 (Herbicidal ratio of 90% or more (almost completely withered)),–,2 (Herbicidal ratio of 20% or higher and lower than 40%),–,4 (Herbicidal ratio of 70% or higher and lower than 90%),–,–,–,–,–,–,–,–,1 (Herbicidal ratio of 5% or higher and lower than 20%),5 (Herbicidal ratio of 90% or more (almost completely withered)),1 (Herbicidal ratio of 5% or higher and lower than 20%),5 (Herbicidal ratio of 90% or more (almost completely withered))
CON=C(C)CC1CC(OC(=O)COc2ccccc2)=C(c2c(C)cc(-c3ccc(Cl)cc3Cl)cc2C)C1=O (centres unmarked) [6-092],–,–,0 (Herbicidal ratio of 5% or lower (almost no effect)),–,–,–,–,4 (Herbicidal ratio of 70% or higher and lower than 90%),0 (Herbicidal ratio of 5% or lower (almost no effect)),0 (Herbicidal ratio of 5% or lower (almost no effect)),0 (Herbicidal ratio of 5% or lower (almost no effect)),0 (Herbicidal ratio of 5% or lower (almost no effect)),4 (Herbicidal ratio of 70% or higher and lower than 90%),–,–,–,–

# Reference: US11000033B2, “Ketone or oxime compound, and herbicide” (NISSAN CHEMICAL CORPORATION, priority 2014, dated 2021)
